# Active and inactive are the calls of the source. No rule for the calls is given here.
# Test system: rodent carcinogenicity bioassays, tumor incidence
# Experiment: CCRIS carcinogenicity studies
# Method in brief: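 NCI-built, expert-reviewed records of carcinogenicity and related test outcomes (mutagenicity, tumor promotion/inhibition) compiled from published and report sources, historical span 1985-2011, not updated.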
compound,measurement,setting,value
COc1cc2c(c3oc(=O)c4c(c13)CCC4=O)[C@@H]1C=CO[C@@H]1O2,carcinogen call,"Species: FISH, Strain/Sex: COHO SALMON, Route: DIET, Dose: 0, 40 PPB IN DIET FOR 4 WK (STUDY DURATION: 12 MO)",inactive; negative
same,carcinogen call,"Species: FISH, Strain/Sex: COHO SALMON, Route: DIET, Dose: 0, 5000 PPB FOR 3 WK (STUDY DURATION: 12 MO)",inactive; negative
same,carcinogen call,"Species: FISH, Strain/Sex: COHO SALMON, Route: IMMERSION, Dose: 0, 0.5 PPM AQUEOUS SOLUTION FOR 30 MIN EXPOSURE OF EMBRYOS 4-5 D BEFORE HATCHING (STUDY DURATION: 12 MO)",inactive; negative
same,carcinogen call,"Species: FISH, Strain/Sex: MT. SHASTA RAINBOW TROUT, Route: IMMERSION, Dose: 0, 0.5 PPM AQUEOUS SOLUTION FOR 15 MIN EXPOSURE OF EMBRYOS 4-5 D BEFORE HATCHING (STUDY DURATION: 12 MO), Tumor Site: Type of Lesion: LIVER: HEPATOCELLULAR CARCINOMA",active; positive
same,carcinogen call,"Species: FISH, Strain/Sex: MT. SHASTA RAINBOW TROUT, Route: ORAL, Dose: 0, 20 PPB IN DIET FOR 4 WK (STUDY DURATION: 12 MO), Tumor Site: Type of Lesion: LIVER: HEPATOCELLULAR CARCINOMA",active; positive
same,carcinogen call,"Species: FISH, Strain/Sex: RAINBOW TROUT, Route: ORAL, Dose: 0, 1.5, 7.5 UG/DIET FOR 5.5 MO (STUDY DURATION: 5.5 MO), Dose: 0, 1.5, 7.5 UG/DIET FOR 5.5 MO (STUDY DURATION: 5.5 MO), Tumor Site: Type of Lesion: LIVER: HEPATOMA",active; positive
same,carcinogen call,"Species: FISH, Strain/Sex: RAINBOW, Route: DIET, Dose: 0, 6 PPB FOR UP TO 1 YR, Tumor Site: Type of Lesion: LIVER: HEPATOCELLULAR CARCINOMA",active; positive
same,carcinogen call,"Species: FISH, Strain/Sex: SHASTA RAINBOW TROUT/MALE, FEMALE, Route: IMMERSION, Dose: 0, 0.01, 0.025, 0.05, 0.1, 0.25, 0.5 PPM SOLUTION IN WATER FOR 1 HR EXPOSURE OF EMBRYOS (STUDY DURATION: 13 MO), Dose: 0, 0.01, 0.025, 0.05, 0.1, 0.25, 0.5 PPM SOLUTION IN WATER FOR 1 HR EXPOSURE OF EMBRYOS (STUDY DURATION: 13 MO), Tumor Site: Type of Lesion: LIVER: TUMOR",active; positive
same,carcinogen call,"Species: FISH, Strain/Sex: SHASTA RAINBOW TROUT/MALE, FEMALE, Route: ORAL, Dose: 0, 4, 8, 16, 32, 64 PPB IN DIET FOR 2 WK FOLLOWED BY CONTROL DIET FOR THE DURATION OF STUDY (STUDY DURATION: 9 MO), Dose: 0, 4, 8, 16, 32, 64 PPB IN DIET FOR 2 WK FOLLOWED BY CONTROL DIET FOR THE DURATION OF STUDY (STUDY DURATION: 9 MO), Tumor Site: Type of Lesion: LIVER: TUMOR",active; positive
same,carcinogen call,"Species: HUMAN, Route: ORAL, Tumor Site: Type of Lesion: LIVER",active; positive
same,carcinogen call,"Species: MONKEY, Strain/Sex: AFRICAN GREEN/MALE,FEMALE, Route: INTRAPERITONEAL, Dose: 99-134 MG TOTAL DOSE, 1/WK FOR AT LEAST 2 YR, Tumor Site: Type of Lesion: LIVER: CARCINOMA, HEMANGIOENDOTHELIAL SARCOMA, GALL BLADDER (BILE DUCT): ADENOCARCINOMA, PANCREAS: HEMANGIOENDOTHELIAL S, Tumor Site: Type of Lesion: LIVER: CARCINOMA, HEMANGIOENDOTHELIAL SARCOMA, GALL BLADDER (BILE DUCT): ADENOCARCINOMA, PANCREAS: HEMANGIOENDOTHELIAL S",active; positive
same,carcinogen call,"Species: MONKEY, Strain/Sex: AFRICAN GREEN/MALE,FEMALE, Route: ORAL, Dose: 99-134 MG TOTAL DOSE, 1/WK FOR AT LEAST 2 YR, Tumor Site: Type of Lesion: LIVER: CARCINOMA, HEMANGIOENDOTHELIAL SARCOMA, GALL BLADDER (BILE DUCT): ADENOCARCINOMA, PANCREAS: HEMANGIOENDOTHELIAL S, Tumor Site: Type of Lesion: LIVER: CARCINOMA, HEMANGIOENDOTHELIAL SARCOMA, GALL BLADDER (BILE DUCT): ADENOCARCINOMA, PANCREAS: HEMANGIOENDOTHELIAL S",active; positive
same,carcinogen call,"Species: MONKEY, Strain/Sex: CYNOMOLGUS/MALE,FEMALE, Route: INTRAPERITONEAL, Dose: 99-134 MG TOTAL DOSE, 1/WK FOR AT LEAST 2 YR, Tumor Site: Type of Lesion: LIVER: CARCINOMA, HEMANGIOENDOTHELIAL SARCOMA, GALL BLADDER (BILE DUCT): ADENOCARCINOMA, PANCREAS: HEMANGIOENDOTHELIAL S, Tumor Site: Type of Lesion: LIVER: CARCINOMA, HEMANGIOENDOTHELIAL SARCOMA, GALL BLADDER (BILE DUCT): ADENOCARCINOMA, PANCREAS: HEMANGIOENDOTHELIAL S",active; positive
same,carcinogen call,"Species: MONKEY, Strain/Sex: CYNOMOLGUS/MALE,FEMALE, Route: ORAL, Dose: 99-134 MG TOTAL DOSE, 1/WK FOR AT LEAST 2 YR, Tumor Site: Type of Lesion: LIVER: CARCINOMA, HEMANGIOENDOTHELIAL SARCOMA, GALL BLADDER (BILE DUCT): ADENOCARCINOMA, PANCREAS: HEMANGIOENDOTHELIAL S, Tumor Site: Type of Lesion: LIVER: CARCINOMA, HEMANGIOENDOTHELIAL SARCOMA, GALL BLADDER (BILE DUCT): ADENOCARCINOMA, PANCREAS: HEMANGIOENDOTHELIAL S",active; positive
same,carcinogen call,"Species: MONKEY, Strain/Sex: RHESUS/MALE,FEMALE, Route: INTRAPERITONEAL, Dose: 99-134 MG TOTAL DOSE, 1/WK FOR AT LEAST 2 YR, Tumor Site: Type of Lesion: LIVER: CARCINOMA, HEMANGIOENDOTHELIAL SARCOMA, GALL BLADDER (BILE DUCT): ADENOCARCINOMA, PANCREAS: HEMANGIOENDOTHELIAL S, Tumor Site: Type of Lesion: LIVER: CARCINOMA, HEMANGIOENDOTHELIAL SARCOMA, GALL BLADDER (BILE DUCT): ADENOCARCINOMA, PANCREAS: HEMANGIOENDOTHELIAL S",active; positive
same,carcinogen call,"Species: MONKEY, Strain/Sex: RHESUS/MALE,FEMALE, Route: ORAL, Dose: 99-134 MG TOTAL DOSE, 1/WK FOR AT LEAST 2 YR, Tumor Site: Type of Lesion: LIVER: CARCINOMA, HEMANGIOENDOTHELIAL SARCOMA, GALL BLADDER (BILE DUCT): ADENOCARCINOMA, PANCREAS: HEMANGIOENDOTHELIAL S, Tumor Site: Type of Lesion: LIVER: CARCINOMA, HEMANGIOENDOTHELIAL SARCOMA, GALL BLADDER (BILE DUCT): ADENOCARCINOMA, PANCREAS: HEMANGIOENDOTHELIAL S",active; positive
same,carcinogen call,"Species: MOUSE, Route: INTRAPERITONEAL, Tumor Site: Type of Lesion: LIVER",active; positive
same,carcinogen call,"Species: MOUSE, Route: INTRAPERITONEAL, Tumor Site: Type of Lesion: LUNG",active; positive
same,carcinogen call,"Species: MOUSE, Strain/Sex: DDK/FEMALE, Route: TRANSPLACENTAL, Dose: 0, 20, 40, 80, 120 MG/KG ADMINISTERED INTRAPERITONEALLY TO MOTHERS ON DAY 14 OF GESTATION AND OFFSPRING OBSERVED FOR 12, Dose: 0, 20, 40, 80, 120 MG/KG ADMINISTERED INTRAPERITONEALLY TO MOTHERS ON DAY 14 OF GESTATION AND OFFSPRING OBSERVED FOR 12",inactive; negative
same,carcinogen call,"Species: MOUSE, Strain/Sex: DDK/FEMALE, Route: TRANSPLACENTAL, Dose: 0, 40 MG/KG ADMINISTERED INTRAPERITONEALLY TO MOTHERS ON DAY 14 OF GESTATION AND OFFSPRING OBSERVED FOR 6 MO AFTER BIRTH",inactive; negative
same,carcinogen call,"Species: MOUSE, Strain/Sex: DDK/MALE, Route: TRANSPLACENTAL, Dose: 0, 20, 40, 80, 120 MG/KG ADMINISTERED INTRAPERITONEALLY TO MOTHERS ON DAY 14 OF GESTATION AND OFFSPRING OBSERVED FOR 12, Dose: 0, 20, 40, 80, 120 MG/KG ADMINISTERED INTRAPERITONEALLY TO MOTHERS ON DAY 14 OF GESTATION AND OFFSPRING OBSERVED FOR 12, Tumor Site: Type of Lesion: LIVER: TUMOR",active; positive
same,carcinogen call,"Species: MOUSE, Strain/Sex: DDK/MALE, Route: TRANSPLACENTAL, Dose: 0, 40 MG/KG ADMINISTERED INTRAPERITONEALLY TO MOTHERS ON DAY 14 OF GESTATION AND OFFSPRING OBSERVED FOR 6 MO AFTER BIRTH, Tumor Site: Type of Lesion: LIVER: TUMOR",active; positive
same,carcinogen call,"Species: RAT, Route: INTRAPERITONEAL, ORAL, Tumor Site: Type of Lesion: LIVER",active; positive
same,carcinogen call,"Species: RAT, Strain/Sex: F344/MALE, Route: ORAL, Dose: 0, 50 PPB IN AGAR BASED SEMISYNTHETIC DIET FOR STUDY DURATION (STUDY DURATION: 17 MO), Tumor Site: Type of Lesion: LIVER: HEPATOCELLULAR CARCINOMA",active; positive
same,carcinogen call,"Species: RAT, Strain/Sex: F344/MALE, Route: ORAL, Dose: 50 PPB IN DIET 2/WK FOR 12 MO, Tumor Site: Type of Lesion: LIVER: HEPATOCELLULAR CARCINOMA",active; positive
same,carcinogen call,"Species: RAT, Strain/Sex: SPRAGUE-DAWLEY, Route: DIET, Dose: 0, 25 UG/D FOR 15 DOSES, Tumor Site: Type of Lesion: LIVER: HEPATOCELLULAR CARCINOMA",active; positive
same,carcinogen call,"Species: TROUT, Strain/Sex: MT. SHASTA RAINBOW, Route: ORAL, Dose: 4 PPB IN DIET FOR 12 MO, Tumor Site: Type of Lesion: LIVER: HEPATOMA",active; positive
same,carcinogen call,"Species: TROUT, Strain/Sex: MT. SHASTA RAINBOW, Route: ORAL, Dose: 20 PPB IN DIET FOR 12 MO, Tumor Site: Type of Lesion: LIVER: HEPATOCELLULAR CARCINOMA",active; positive

# Source: PubChem BioAssay AID1259411 (Chemical Carcinogenesis Research Information System (CCRIS), 2018)
